# Source: PubChem BioAssay AID328 (DTP/NCI, 2004)
# Toxic doses and inconclusive results are not listed.
# System: BDF1 mice, P388 leukemia ip, median survival T/C
# Assay: NCI In Vivo Anticancer Drug Screen. Data for tumor model P388 Leukemia (intraperitoneal) in B6D2F1 (BDF1) mice
# Conditions: endpoint: median survival time, higher = longer survival
# Outline: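 In tumour-bearing mice, survival after compound treatment is set against the vehicle group and given as a quotient.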
# [1] = dose: 25.0 mg/kg/injection, schedule: Q01DX009 (ip), vehicle: Klucel (hydroxypropylcellulose) (HPC)
# [2] = dose: 50.0 mg/kg/injection, schedule: Q01DX009 (ip), vehicle: Klucel (hydroxypropylcellulose) (HPC)
# [3] = dose: 100.0 mg/kg/injection, schedule: Q04DX003 (ip), vehicle: saline with Tween-80
# [4] = dose: 25.0 mg/kg/injection, schedule: Q01DX009 (ip), vehicle: saline
# [5] = dose: 100.0 mg/kg/injection, schedule: Q01DX009 (ip), vehicle: saline
smiles,measurement,setting,value
O=S(=O)(OCC#CCOS(=O)(=O)c1ccc(Cl)c(Cl)c1)c1ccc(Cl)c(Cl)c1,T/C,"dose: 12.5 mg/kg/injection, schedule: Q01DX009 (ip), vehicle: Klucel (hydroxypropylcellulose) (HPC)",99 % of control
same,T/C,[1],112 % of control
same,T/C,"dose: 35.0 mg/kg/injection, schedule: Q01DX009 (ip), vehicle: Klucel (hydroxypropylcellulose) (HPC)",93 % of control
same,T/C,[2],87 % of control
same,T/C,"dose: 75.0 mg/kg/injection, schedule: Q01DX009 (ip), vehicle: Klucel (hydroxypropylcellulose) (HPC)",101 % of control
CS(=O)(=O)NC(=O)NC(=S)c1ccccc1,T/C,"dose: 100.0 mg/kg/injection, schedule: Q01DX001 (ip), vehicle: saline with Tween-80",100 % of control
same,T/C,"dose: 200.0 mg/kg/injection, schedule: Q01DX001 (ip), vehicle: saline with Tween-80",100 % of control
same,T/C,"dose: 400.0 mg/kg/injection, schedule: Q01DX001 (ip), vehicle: saline with Tween-80",108 % of control
CCOP(=S)(N1CC1C)N1CC1C (configuration not stated),T/C,"dose: 66.0 mg/kg/injection, schedule: Q04DX003 (ip), vehicle: saline with Tween-80",116 % of control
same,T/C,"dose: 100.0 mg/kg/injection, schedule: Q01DX007 (ip), vehicle: saline with Tween-80",163 % of control
same,T/C,[3],112 % of control
same,T/C,"dose: 150.0 mg/kg/injection, schedule: Q01DX007 (ip), vehicle: saline with Tween-80",159 % of control
same,T/C,"dose: 150.0 mg/kg/injection, schedule: Q04DX003 (ip), vehicle: saline with Tween-80",120 % of control
COc1ccc(NC(=O)c2ccccc2Cl)cc1,T/C,"dose: 100.0 mg/kg/injection, schedule: Q01DX009 (ip), vehicle: Klucel (hydroxypropylcellulose) (HPC)",100 % of control
same,T/C,"dose: 100.0 mg/kg/injection, schedule: Q04DX003 (ip), vehicle: Klucel (hydroxypropylcellulose) (HPC)",104 % of control
same,T/C,"dose: 200.0 mg/kg/injection, schedule: Q01DX009 (ip), vehicle: Klucel (hydroxypropylcellulose) (HPC)",95 % of control
same,T/C,"dose: 200.0 mg/kg/injection, schedule: Q04DX003 (ip), vehicle: Klucel (hydroxypropylcellulose) (HPC)",91 % of control
same,T/C,"dose: 400.0 mg/kg/injection, schedule: Q01DX009 (ip), vehicle: Klucel (hydroxypropylcellulose) (HPC)",104 % of control
same,T/C,"dose: 400.0 mg/kg/injection, schedule: Q04DX003 (ip), vehicle: Klucel (hydroxypropylcellulose) (HPC)",112 % of control
CC1C[N-]1.CC1C[N-]1.[Cl][Pt+2][Cl] (configuration not stated),T/C,[4],100 % of control
same,T/C,"dose: 50.0 mg/kg/injection, schedule: Q01DX009 (ip), vehicle: saline",111 % of control
same,T/C,[5],101 % of control
same,T/C,"dose: 150.0 mg/kg/injection, schedule: Q01DX009 (ip), vehicle: saline",100 % of control
CC(=O)Nc1ccc2c(O)cc(S(=O)(=O)O)cc2c1,T/C,[5],107 % of control
same,T/C,"dose: 200.0 mg/kg/injection, schedule: Q01DX009 (ip), vehicle: saline",98 % of control
same,T/C,"dose: 400.0 mg/kg/injection, schedule: Q01DX009 (ip), vehicle: saline",114 % of control
Ic1ncnc2c1ncn2C1CCCCO1 (configuration not stated),T/C,"dose: 100.0 mg/kg/injection, schedule: Q04DX003 (ip), vehicle: saline sonified",91 % of control
same,T/C,"dose: 200.0 mg/kg/injection, schedule: Q04DX003 (ip), vehicle: saline sonified",91 % of control
same,T/C,"dose: 400.0 mg/kg/injection, schedule: Q04DX003 (ip), vehicle: saline sonified",91 % of control
C=CCN1C(=O)CN=C1SC(=O)Nc1ccc(Cl)cc1,T/C,"dose: 50.0 mg/kg/injection, schedule: Q01DX005 (ip), vehicle: saline with Tween-80",97 % of control
same,T/C,"dose: 100.0 mg/kg/injection, schedule: Q01DX005 (ip), vehicle: saline with Tween-80",97 % of control
COc1ccc(CNCC(=O)OCc2ccccc2)cc1,T/C,"dose: 25.0 mg/kg/injection, schedule: Q01DX009 (ip), vehicle: saline with Tween-80",92 % of control
same,T/C,"dose: 50.0 mg/kg/injection, schedule: Q01DX009 (ip), vehicle: saline with Tween-80",101 % of control
same,T/C,"dose: 100.0 mg/kg/injection, schedule: Q01DX009 (ip), vehicle: saline with Tween-80",88 % of control
same,T/C,[3],111 % of control
same,T/C,"dose: 200.0 mg/kg/injection, schedule: Q01DX009 (ip), vehicle: saline with Tween-80",102 % of control
same,T/C,"dose: 200.0 mg/kg/injection, schedule: Q04DX003 (ip), vehicle: saline with Tween-80",109 % of control
CCNC(C)(C)C(Cl)c1ccc(Cl)s1 (configuration not stated),T/C,[1],91 % of control
same,T/C,"dose: 25.0 mg/kg/injection, schedule: Q04DX003 (ip), vehicle: saline with Tween-80",104 % of control
same,T/C,[2],104 % of control
same,T/C,"dose: 50.0 mg/kg/injection, schedule: Q04DX003 (ip), vehicle: saline with Tween-80",101 % of control
same,T/C,[3],95 % of control
N#[N+]N=c1c(=NN=[N-])c(=O)c2ccccc2c1=O,T/C,"dose: 3.0 mg/kg/injection, schedule: Q01DX009 (ip), vehicle: saline with Tween-80",90 % of control
same,T/C,"dose: 6.0 mg/kg/injection, schedule: Q01DX009 (ip), vehicle: saline with Tween-80",87 % of control
same,T/C,"dose: 12.0 mg/kg/injection, schedule: Q01DX009 (ip), vehicle: saline with Tween-80",95 % of control
Cc1nc(Br)c2cnccn12,T/C,"dose: 12.5 mg/kg/injection, schedule: Q01DX009 (ip), vehicle: saline",118 % of control
same,T/C,[4],109 % of control
